Test results: US20100284984A1, “ADENOSINE AND ITS MIMETICS. MODULATORS, TRANSPORT INHIBITORS, AND RECEPTOR AGONISTS AS A THERAPEUTIC TOOL TO REPLACE OR IMPROVE THE EFFICACY OF DEEP BRAIN STIMULATION” (University of Rochester, priority 2007, published 2010)
Entries after “also recorded” stand apart in the source; their conditions may differ.

Legend:
thalamic neurons [1] = experiment: Drug effect on evoked EPSPs (eEPSP) in thalamic slices, current clamp; format: cell-based, mouse; details: DPCPX 100 nM
Procedure: Thalamic slices (300 μm) from 14-18 day old mouse pups (FVB/NJ mice; Jackson Laboratory) were cut on a Vibratome (TPI) in an ice-cold cutting solution containing (in mM): 2.5 KCl, 1.25 NaH2PO4, 10 MgSO4, 5 CaCl2, 10 glucose, 26 NaHCO3, 230 sucrose and gassed with 5% CO2 and 95% O2. Slices were incubated for a minimum of 1 hr in a slice solution containing (in mM): 126 NaCl, 2.5 KCl, 1.25 NaH2PO4, 2 MgCl2, 2 CaCl2, 10 glucose, and 26 NaHCO3, pH 7.4, and gassed with 5% CO2 and 95% O2 at room temperature. The slices were transferred to a recording chamber (1.5 ml) perfused with aCSF at room temperature or 32° C. Whole-cell current clamp recordings were obtained using a 700B Multiclamp amplifier (Axon Instruments) (Jiang et al., “A Kainate Receptor Increases The Efficacy of Gabaergic Synapses,” Neuron 30:503-13 (2001); Tian et al., “An Astrocytic Basis of Epilepsy,” Nat Med 11:973-81 (2005), which are hereby incorporated by reference in their entirety). Concentric bipolar stimulating electrodes (FHC) were placed ˜100-400 μm ventromedial to the patched VL thalamic neuron. Stimulation was delivered through a constant isolated current source (ISO-Flex stimulus isolator with a Master-8-vp stimulator; AMPI) and consisted of monophasic 60 μs square pulses of varying amplitude (15, 25, 50 μA) and frequency (25, 75, 125, 200 Hz). Based upon maximum current amplitude and the surface area of the electrode, it is estimated that the maximum charge density was in the range of ˜1-10 μC/cm^2. The artifacts of the HFS signal were blanked and staggered to allow continuous observation of the 2.5 Hz signal (Anderson et al., “Selective Attenuation of Afferent Synaptic Transmission as a Mechanism of Thalamic Deep Brain Stimulation-Induced Tremor Arrest,” J Neurosci 26:841-50 (2006), which is hereby incorporated by reference in its entirety). Adenosine measurements were detected using needle shaped electrode (Pt/Ir wire) biosensors (Sarissa Biomedical). Calibration was carried out at the beginning and end of each slice experiment in the bath above the slice. Measurements were obtained ˜100 μm from the stimulation electrode in the thalamic slice. […].
To further analyze the role of adenosine in HFS, the effect of perfusion with an aCSF containing 1-100 μM adenosine in thalamic slices was studied. […]. […] The AMPA receptor antagonist, CNQX could not be tested due to its direct effect on EPSCs (Wang et al., “Astrocytic Ca(2+) Signaling Evoked by Sensory Stimulation in Vivo,” Nat Neurosci 9:816-23 (2006), which is hereby incorporated by reference in its entirety) (FIG. 3G). […]. […]

harmaline-induced tremor = experiment: DBS therapeutic window in harmaline-induced tremor; format: in vivo; details: APV and CNQX 10 mg/kg each i.p.; DPCPX 4 mg/Kg i.p.
Procedure: Harmaline was administed i.p. 20 min prior to DBS (20-30 mg/kg) (Wilms et al., “Animal Models of Tremor,” Mov Disord 14:557-71 (1999); Martin et al., “Harmaline-Induced Tremor as a Potential Preclinical Screening Method for Essential Tremor Medications,” Mov Disord 20:298-305 (2005), which are hereby incorporated by reference in their entirety). […] For electrode and microdialysis implantation, mice were anaesthetized with a mixture of Ketamine (60 mg/kg) and Xylazine (10 mg/kg) and placed into a stereotactic frame. The skull was exposed and concentric bipolar microelectrodes (SNE-100, KOPF) or microdialysis probes (Bioanalytical Systems, Inc.) were implanted into the ventrolateral thalamic nucleus at the following coordinates: AP: −1.4 mm; ML: ±0.9 mm; DV: −3.7 mm. The electrodes or microdialysis probes were attached to the skull with dental cement. […] Tremor was recorded by either EMG electrodes placed in the occipital muscles or by the Convuls-1 pressure transducer (Columbus Instruments) in awake freely moving animals. […]
. […] The minimal efficient current amplitude of DBS was determined by methodically changing the stimulation parameters (FIG. 4C). […]

thalamic neurons [2] = experiment: HFS-induced depression of eEPSPs in thalamic slices, pharmacology; format: cell-based, mouse
thalamic neurons [3] = experiment: HFS-induced membrane depolarization of thalamic neurons; format: cell-based, mouse; details: thalamic slices during HFS
[4] = biological target: T1, Ecto-5′-nucleotidase CD73 (Rattus norvegicus, UniProt P21588); details: Sato et al., rat hearts; cited from earlier work
T1 sequence (P21588 29-551): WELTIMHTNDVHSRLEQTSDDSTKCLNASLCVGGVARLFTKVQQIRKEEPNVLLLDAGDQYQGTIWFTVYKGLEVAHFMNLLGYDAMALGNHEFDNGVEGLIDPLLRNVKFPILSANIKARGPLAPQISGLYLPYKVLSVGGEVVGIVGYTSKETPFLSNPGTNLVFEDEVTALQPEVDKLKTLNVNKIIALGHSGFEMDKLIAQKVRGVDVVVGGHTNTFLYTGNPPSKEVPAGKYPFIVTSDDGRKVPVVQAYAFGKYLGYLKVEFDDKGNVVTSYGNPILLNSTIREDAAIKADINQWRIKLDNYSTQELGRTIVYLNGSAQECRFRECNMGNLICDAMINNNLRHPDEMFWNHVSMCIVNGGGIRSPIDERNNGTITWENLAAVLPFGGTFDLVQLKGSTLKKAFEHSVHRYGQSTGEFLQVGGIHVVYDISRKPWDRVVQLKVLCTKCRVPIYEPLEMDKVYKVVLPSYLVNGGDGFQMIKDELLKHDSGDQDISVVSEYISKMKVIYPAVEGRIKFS

adenosine deaminase = biological target: T2, adenosine deaminase (Homo sapiens, UniProt P00813); details: at 27° C.; cited from earlier work
T2 sequence (P00813 1-363): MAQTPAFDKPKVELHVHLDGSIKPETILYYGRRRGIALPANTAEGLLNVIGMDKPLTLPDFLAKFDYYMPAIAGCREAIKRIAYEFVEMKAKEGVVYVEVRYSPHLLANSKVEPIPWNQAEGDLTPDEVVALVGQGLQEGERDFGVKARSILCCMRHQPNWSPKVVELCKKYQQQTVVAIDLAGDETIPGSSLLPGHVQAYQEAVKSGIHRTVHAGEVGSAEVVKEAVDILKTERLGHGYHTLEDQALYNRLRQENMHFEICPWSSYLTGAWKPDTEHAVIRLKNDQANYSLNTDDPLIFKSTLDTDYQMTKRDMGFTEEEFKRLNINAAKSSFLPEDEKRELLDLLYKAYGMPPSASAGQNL

Ecto-ATPase [5] = details: Crack et al.; cited from earlier work
P2 receptors = details: cited from earlier work
thalamic slices = experiment: Extracellular adenosine by biosensor during HFS of thalamic slices; format: cell-based, mouse; details: 50 μM
Procedure: Thalamic slices (300 μm) from 14-18 day old mouse pups (FVB/NJ mice; Jackson Laboratory) were cut on a Vibratome (TPI) in an ice-cold cutting solution containing (in mM): 2.5 KCl, 1.25 NaH2PO4, 10 MgSO4, 5 CaCl2, 10 glucose, 26 NaHCO3, 230 sucrose and gassed with 5% CO2 and 95% O2. Slices were incubated for a minimum of 1 hr in a slice solution containing (in mM): 126 NaCl, 2.5 KCl, 1.25 NaH2PO4, 2 MgCl2, 2 CaCl2, 10 glucose, and 26 NaHCO3, pH 7.4, and gassed with 5% CO2 and 95% O2 at room temperature. The slices were transferred to a recording chamber (1.5 ml) perfused with aCSF at room temperature or 32° C. Whole-cell current clamp recordings were obtained using a 700B Multiclamp amplifier (Axon Instruments) (Jiang et al., “A Kainate Receptor Increases The Efficacy of Gabaergic Synapses,” Neuron 30:503-13 (2001); Tian et al., “An Astrocytic Basis of Epilepsy,” Nat Med 11:973-81 (2005), which are hereby incorporated by reference in their entirety). Concentric bipolar stimulating electrodes (FHC) were placed ˜100-400 μm ventromedial to the patched VL thalamic neuron. […] Adenosine measurements were detected using needle shaped electrode (Pt/Ir wire) biosensors (Sarissa Biomedical). […]

Ecto-ATPase [6] = details: Drakulich et al.; cited from earlier work
Rat Parotid Ecto-ATPase = details: Dowd et al.; cited from earlier work

Question: Which “effect on adenosine-induced reduction of eEPSPs” value (thalamic neurons [1]) does the source give for `CCCn1c(=O)c2[nH]c(C3CCCC3)nc2n(CCC)c1=O` [DPCPX] here?
Answer: blocked the effect of adenosine; also recorded: reversibly attenuated the reduction

Question: And the “effect on the ability of DBS to reduce harmaline-induced tremor” value (harmaline-induced tremor)?
Answer: involuntary movements rather than tremor reduction

Question: What about the “threshold for DBS-induced involuntary movements” value (harmaline-induced tremor) of the same compound?
Answer: developed involuntary movements at stimulation intensities below the therapeutic range

Question: What about the “time for EPSPs to recover to pre-stimulation values after HFS” value (thalamic neurons [2]; 300 nM, directly stimulated pathways) of the same compound?
Answer: 12.4 ± 6.1 s

Question: What about the “effect on HFS-induced depression of eEPSPs, heterosynaptic pathways” value (thalamic neurons [2]; HFS 125 Hz, 250 μA, 10 sec, 32° C., separate electrodes) of the same compound?
Answer: attenuated the depression of eEPSPs; also recorded: potently attenuated the HFS-induced suppression of eEPSPs

Question: And the “effect on HFS-induced depression of eEPSPs, homosynaptic (directly stimulated) pathways” value (thalamic neurons [2]; same electrode for HFS and eEPSPs)?
Answer: reduced depression of eEPSPs after, but not during, HFS; also recorded: attenuated this reduction following, but not during HFS

Question: And the “effect on HFS-induced depolarization” value (thalamic neurons [3])?
Answer: no effect

Question: For `COc1ccc(Cl)cc1C(=O)NCCc1ccc(S(=O)(=O)NC(=O)NC2CCCCC2)cc1` [giberclamide], which IC50 [4] is on record?
Answer: 10.5 µM

Question: With `CC(=O)Nc1ccc(O)cc1` [acetaminophen] as the compound, how does the Ki (adenosine deaminase) read?
Answer: 126 µM

Question: What does the source list for `CCN(CC)c1ncnc2c1ncn2C1OC(COP(=O)(O)OP(=O)(O)C(Br)(Br)P(=O)(O)O)C(O)C1O` [ARL67156, 6-N,N-diethyl-D-beta, gamma-dibromomethyleneATP]?
Answer: IC50 (Ecto-ATPase [5]): 4.6 µM; effect on HFS-induced depression of eEPSPs (FIG. 3G) (thalamic neurons [2]; 50 μM, HFS 250 μA, 100 μs, 5 sec, 20° C.): attenuated HFS-induced depression of eEPSPs; effect on P2 receptors (P2 receptors): lack of or only has weak effect; HFS-induced increase in extracellular adenosine (thalamic slices): reduction in the HFS-induced adenosine increase; HFS-induced increase in extracellular adenosine (thalamic slices; listed as ARL): reduced adenosine increases during HFS; also recorded: did not completely block the rise in adenosine; Ki (Ecto-ATPase [6]): 0.255 µM; IC50 (Rat Parotid Ecto-ATPase): 120 µM
